≈ marks a conversion by molar mass, not a printed value. Like-named read-outs stand apart in the source and are kept apart here.
What was measured:
[1] = tested on: Fusarium oxysporum; experiment: Minimum Inhibitory Concentration (MIC) test, aqueous state; assay type: cell-based; conditions: for MIC: Fusarium oxysporum
Description: (§1) Table 1 indicates the MIC values generated against Th. Novella, Fusarium and a combination of the two for two antifungal additives that were tested in the aqueous state.
(§2) In addition to testing the active ingredients alone, MIC tests were conducted for combinations of the QS and the antifungal actives. An OIT active material was added to this test using the QS molecule to compatibilize the mixture, making the mixture water soluble so MIC testing was possible. Table 2 summarizes the MIC data generated for these actives:
(§3) Testing was also conducted to determine whether the addition of the defoamer or mixing the QS and OIT together would have any effect on the microbial efficacy of these components.

[2] = tested on: Aspergillus niger; experiment: Minimum Inhibitory Concentration (MIC) test; assay type: cell-based; conditions: Table 5, Tributyl Phosphate Defoamer: No
Description: as §3

[3] = tested on: Starkeya + Fusarium; experiment: Minimum Inhibitory Concentration (MIC) test, aqueous state; assay type: cell-based, Starkeya novella + Fusarium oxysporum; conditions: for MIC: Fusarium, read-out: Active Ingredient Minimum Inhibitory Concentration, Starkeya + Fusarium
Description: as §1
as §2, with “actives: […]” for “actives:”

[4] = tested on: Starkeya novella; experiment: as above; assay type: cell-based; conditions: Ancylobacter novellus, active ingredient alone
Description: as §1
as §2, with “actives: […]” for “actives:”

[5] = Table 5, Tributyl Phosphate Defoamer: No, read-out: MIC, Fusarium oxysporum
[6] = active ingredient alone, aqueous state

Q: `CCCCCCCCn1sccc1=O` [OIT, 2-Octyl-2H-isothiazol-3-one] was tested. Which MIC [1, 5] did it give?
A: 6.3 µg/mL

Q: And the MIC [2]?
A: 6.3 µg/mL (≈ 29.5 µM)

Q: Imazalil Sulphate [IF4] was tested. Which “Active Ingredient Minimum Inhibitory Concentration, Fusarium oxysporum” value [1, 6] did it give?
A: 500 ppm

Q: What about the “Active Ingredient Minimum Inhibitory Concentration, Starkeya + Fusarium” value [3, 6] of the same compound?
A: 500 ppm

Q: What does the source list for `CCCCCCCCCCCCCCCCCC[N+](C)(C)CCC[Si](OC)(OC)OC.[Cl-]` [QS, 1-Octadecanaminium, N,N-dimethyl-N-(3-(trimethoxysilyl)propyl)-, chloride]?
A: MIC [1, 5]: 15.6 µg/mL; MIC ([1]; active ingredient alone, aqueous state, read-out: Active Ingredient Minimum Inhibitory Concentration, Fusarium oxysporum): 15.6 µg/mL; MIC [3, 6]: 31.3 µg/mL; MIC [2]: 125 µg/mL; MIC [4]: 7.8 µg/mL

Q: Which results are given for `Oc1ccccc1-c1ccccc1.[Na]` [P2, Sodium OrthophenylPhenol]?
A: MIC ([1]; read-out: Active Ingredient Minimum Inhibitory Concentration, Fusarium oxysporum): 250 µg/mL; MIC [3]: 125 µg/mL

From patent US12110255B2, “Additive formulation for reduction or prevention of microbially induced corrosion in concrete or cementitious material” (MICROBAN PRODUCTS COMPANY, priority 2017, dated 2024)
